Calls of active or inactive are those of the source. The rule behind the calls is not given here.
Legend:
[1] = system: CCRF-CEM; test: Induction of apoptosis in human CCRF-CEM cells at 0.01 uM after 72 hrs by propidium iodide staining-based flow cytometry; type: functional, cell-based
[2] = system: CCRF-CEM; test: Cell cycle arrest in human CCRF-CEM cells assessed as accumulation at G2/M phase after 24 hrs by propidium iodide staining-based flow cytometry; type: functional
[3] = system: CCRF-CEM; test: Cytotoxicity against human CCRF-CEM cells assessed as reduction in cell viability after 72 hrs by resazurin reduction assay; type: functional, cell-based
[4] = system: CCRF-CEM; test: Cell cycle arrest in human CCRF-CEM cells assessed as accumulation at S phase at 0.01 uM after 6 hrs by propidium iodide staining-based flow cytometry; type: functional
[5] = system: ADR5000 cell line; test: Cytotoxicity against human CEM/ADR5000 cells assessed as reduction in cell viability after 72 hrs by resazurin reduction assay; type: functional, cell-based; conditions: ADR5000, 72 h
[6] = Resistance index, ratio of IC50 for human CEM/ADR5000 cells to IC50 for human CCRF-CEM cells; type: functional
[7] = system: CCRF-CEM; test: Cell cycle arrest in human CCRF-CEM cells assessed as accumulation at S phase at 0.055 to 0.44 uM after 6 to 72 hrs by propidium iodide staining-based flow cytometry; type: functional
[8] = system: CCRF-CEM; test: Cell cycle arrest in human CCRF-CEM cells assessed as accumulation at G2/M phase at 0.055 to 0.44 uM after 6 to 72 hrs by propidium iodide staining-based flow cytometry; type: functional
[9] = system: CCRF-CEM; test: Induction of apoptosis in human CCRF-CEM cells at 0.055 to 0.44 uM after 24 to 72 hrs by propidium iodide staining-based flow cytometry; type: functional, cell-based
[10] = system: CCRF-CEM; test: Cell cycle arrest in human CCRF-CEM cells assessed as accumulation at SubG1 phase at 0.055 to 0.44 uM after 72 hrs by propidium iodide staining-based flow cytometry; type: functional

Structure (SMILES) | Activity [1] | Activity [2] | IC50 [3] | Activity [4] | IC50 [5] | Ratio IC50 [6] | Activity [7] | Activity [8] | Activity [9] | Activity [10]
CC[C@@]1(O)C(=O)OCc2c1cc1n(c2=O)Cc2cc3ccccc3nc2-1 [CAMPTOTHECIN] | Active | Dose-dependent effect | 3 nM | Active | 11 nM | 3.7 | – | – | – | –
COc1cc(-c2c3c(n4ccc5cc(O)c(OC)cc5c24)C(=O)c2cc(O)c(OC)cc2-3)ccc1O | – | – | 113 nM | – | 172 nM | 1.5 | inactive | inactive | Active | Active

Reference: ChEMBL document CHEMBL4177527, “Synthesis and biological evaluation of a D-ring-contracted analogue of lamellarin D” (Bioorg Med Chem, 2017)
